PubChem BioAssay AID1996
In brackets after ≈: the same amount, converted by molar mass.

Conditions: buffer; pH 7.4; 200.0 µM

Row | solubility kinetic | SMILES
1 | 37.1 µg/mL (≈ 107 µM) | CCCCN(C(=O)c1ccncc1)c1c(N)n(CCC)c(=O)[nH]c1=O
2 | 0.4 µg/mL (≈ 2.34 µM) | Cc1c(C)n2c3c(cccc13)CC2
3 | 16.5 µg/mL (≈ 56 µM) | Cc1cc(SCC(=O)c2ccc(Cl)cc2)nc(=O)[nH]1
4 | > 50.7 µg/mL | O=C(CN1C(=O)c2ccccc2C1=O)NCc1ccc(C(=O)O)cc1
5 | 24.7 µg/mL (≈ 68.5 µM) | Cc1c(C=Nc2ccc(S(=O)(=O)N(C)C)cc2)c(O)[nH]c(=O)c1C#N
6 | > 47.7 µg/mL | O=C(O)CCCCCNC(=O)C(=O)C1C(=O)Nc2ccccc21 (stereo unspecified)
7 | 3.3 µg/mL (≈ 10.2 µM) | CC1(C)CC2CC(C)(CN2C(=O)c2cc(-c3ccccc3)on2)C1 (stereo unspecified)
8 | > 51.2 µg/mL | CC(C(=O)NCc1ccccc1)N1CCN(c2ccc(F)cc2)CC1 (stereo unspecified)
9 | 12.8 µg/mL (≈ 45.3 µM) | Cc1ccc(NC(=O)c2cc(F)c(F)cc2Cl)nc1
10 | 1.2 µg/mL (≈ 3.5 µM) | Cc1ccc(C)c(OCC(=O)O/N=C(\N)c2cccc([N+](=O)[O-])c2)c1
11 | 36.2 µg/mL (≈ 144 µM) | Cc1cc(NC(=O)Nc2ccccc2Cl)no1
12 | 5 µg/mL (≈ 15.8 µM) | Cc1cccc(NS(=O)(=O)c2ccc3[nH]c(=O)[nH]c3c2)c1C
13 | 39.5 µg/mL (≈ 133 µM) | O=C(Cc1ccc([N+](=O)[O-])cc1)N1CCCc2ccccc21
14 | 3.4 µg/mL (≈ 10 µM) | COC(=O)c1cn(C(=O)c2cc(OC)cc(OC)c2)c2ccccc12
15 | < 0.2 µg/mL | O=C(NCc1ccccc1Cl)NC(=O)c1csc([N+](=O)[O-])c1
16 | 43.4 µg/mL (≈ 137 µM) | Nc1ccc(Cl)c(S(=O)(=O)Nc2ccc(Cl)cc2)c1
17 | 27.5 µg/mL (≈ 109 µM) | O=C(Nc1ccccc1)Nc1ccc2ncoc2c1

Row | solubility kinetic | SMILES
18 | > 48.9 µg/mL | Br.COC(=O)CN1C2=NCCCN2c2ccccc21
19 | > 49.6 µg/mL | CC(C)(C)c1ccc(S(=O)(=O)Nc2noc3ccccc23)cc1
20 | > 42.1 µg/mL | CCc1cc(N2CCOCC2)cc2c1[nH]c1ccccc12
21 | 6.3 µg/mL (≈ 16.5 µM) | CC(=O)c1cc2c(cc1NC(=O)C1CN(C(C)=O)c3ccccc3O1)OCO2 (stereo unspecified)
22 | 22.1 µg/mL (≈ 66.3 µM) | CCC(C)(C)NC(=O)C(OC(=O)c1ccco1)c1ccccc1F (stereo unspecified)
23 | 15.9 µg/mL (≈ 55.9 µM) | N=c1oc2ccccc2cc1C(=O)NC1CCCCCC1
24 | 2.8 µg/mL (≈ 8.15 µM) | CCNC(=S)Nc1ccc(OCc2nc3ccccc3s2)cc1
25 | 57 µg/mL (≈ 134 µM) | O=C(COC(=O)Cc1ccc(S(=O)(=O)N2CCOCC2)s1)Nc1ccccc1
26 | 0.9 µg/mL (≈ 2.78 µM) | O=c1cc(-c2ccc([N+](=O)[O-])cc2)c2cc3c(cc2[nH]1)OCCO3
27 | > 49.4 µg/mL | COc1ccc(C(=O)CSc2nnc3ccccn23)cc1OC
28 | > 42.6 µg/mL | N#CC(C#N)=C1NC(N)=C(C#N)C(c2ccccc2)=C1C#N
29 | 4.6 µg/mL (≈ 18.3 µM) | COc1ccc(-c2cc(=O)[nH]c3ccccc23)cc1
30 | 43.3 µg/mL (≈ 143 µM) | CC1CCN(CCn2c(=S)[nH]c3ccccc3c2=O)CC1
31 | < 0.3 µg/mL | Cc1ccc(NC(=O)Nc2ccc3c(c2)C(=O)OC3)cc1Cl
32 | 42.3 µg/mL (≈ 128 µM) | CC(=O)Nc1ccc(Sc2ccccc2C(=O)O)c(C(=O)O)c1
33 | 4.3 µg/mL (≈ 16.4 µM) | COc1ccc([N+](=O)[O-])cc1NC(=O)c1ccco1
34 | 14.4 µg/mL (≈ 27.5 µM) | COc1ccccc1N(CC(=O)Nc1cc(S(=O)(=O)N(C)C)ccc1C)S(=O)(=O)c1cccs1

The remaining lines, values behind:

Row | SMILES | solubility kinetic
35 | COc1ccc(Cl)cc1NC(=O)CN1CCCCCC1 | 2.1 µg/mL (≈ 7.08 µM)
36 | O=C(c1ccc(F)cc1)C1CCN(C(=O)c2ccc(F)cc2)CC1 | > 49.4 µg/mL
37 | COc1ccc(CCC(=O)OCC(=O)c2ccc[nH]2)cc1OC | > 47.6 µg/mL
38 | CCN(CC)c1cc(Cl)nc(N)n1 | 25.9 µg/mL (≈ 129 µM)
39 | CCC1=NC(c2ccc(Br)cc2)N(O)C1(C)C (stereo unspecified) | 41 µg/mL (≈ 138 µM)
40 | CC(C)(C)C(=O)N1CCN(c2ccnc3cc(Cl)ccc23)CC1 | 45 µg/mL (≈ 136 µM)
41 | Cc1nc2ccccc2n1CC(=O)NC1CCCCCC1 | > 42.8 µg/mL
42 | CCOc1ccc(NC(=O)NCc2ccc3c(c2)OCO3)cc1 | 1.8 µg/mL (≈ 5.73 µM)
43 | O=C(O)c1cc(C(=O)O)cc(N2C(=O)CSC2=S)c1 | > 44.6 µg/mL
44 | Cc1cc(OCC(O)CN2CCCC2)cc(C)c1Cl.Cl (stereo unspecified) | 42.3 µg/mL
45 | CCN1CCN(C(CNS(=O)(=O)c2cccs2)c2cccnc2)CC1 (stereo unspecified) | 49.3 µg/mL (≈ 130 µM)
46 | Cc1ccc(CNC(=O)COC(=O)c2cnc(C)cn2)cc1 | > 44.9 µg/mL
47 | Nc1ccnc(=O)[nH]1 | > 16.7 µg/mL
48 | O=C(NCCN1CCOCC1)c1cc(Br)ccc1Cl | > 52.1 µg/mL
49 | O=C(NCc1ccc(Cl)cc1)N1CCOCC1 | > 38.2 µg/mL
50 | OCCN1CCN(C(c2cccs2)c2ccc3cccnc3c2O)CC1 (stereo unspecified) | 44 µg/mL (≈ 119 µM)
51 | CC(=O)Nc1ccc(NC(=O)C(C)OC(=O)CC23CC4CC(CC(Br)(C4)C2)C3)cc1 (stereo unspecified) | > 71.6 µg/mL
52 | Cc1cc(C=NCCO)c(C)n1-c1cc(Cl)ccc1Cl | 29.2 µg/mL (≈ 93.8 µM)
53 | CC(=O)Oc1ccc(C(=O)Nc2cccnc2)cc1 | > 38.4 µg/mL
54 | Cn1cccc1C(=O)OCC(=O)NC1CCS(=O)(=O)C1 (stereo unspecified) | > 45 µg/mL
55 | O=C(Cc1ccc(Br)cc1)Nc1ncc([N+](=O)[O-])s1 | 7.8 µg/mL (≈ 22.8 µM)
56 | Cc1ccc(C(C)C)c(OCC(=O)NC2CCN(C)CC2)c1 | > 45.7 µg/mL
57 | COc1ccc(Nc2ccc(C(F)(F)F)cc2[N+](=O)[O-])cn1 | 1.8 µg/mL (≈ 5.75 µM)
58 | COc1ccc(CN2CCSCC2)c(C)c1C | 5.7 µg/mL (≈ 22.7 µM)
59 | Cc1ccc(OCCNC(=O)c2ccc(C)cc2)cc1 | 3.8 µg/mL (≈ 14.1 µM)
60 | O=C(Cc1ccc(Cl)cc1)N1CCOCC1 | > 36 µg/mL
61 | CN(C)C(=O)O/N=C(\N)COc1ccc(C(C)(C)C)cc1 | 36 µg/mL (≈ 123 µM)
